Test results as given in patent publication US20240226045A9, “RUMEN-PROTECTED COMPOSITIONS AND METHODS OF MAKING THE SAME” (Balchem Corporation, priority 2022, published 2024).

Key:
[1] = Methionine pellet pH test; assay type: physicochemical; details: 2 hours at 39° C.
Procedure: The pellets were then incubated in a pH 2.0 buffer and a pH 7.0 buffer for 2 hours at 39° C. For comparison, pellets consisting of methionine were also incubated in the buffer solutions. The results are shown in FIG. 10 and in Table 26 below.

[2] = Particle size distribution of histidine hydrochloride monohydrate crystals by sieving; assay type: physicochemical
Text: Histidine hydrochloride monohydrate crystals were sieved on Ro Tap equipment using a stack of US Mesh sieves to obtain a fraction ranging from 850 microns (20 US Mesh) to 250 microns (60 US Mesh) particle size. The fraction was chosen to remove very fine particles, which present a challenge to optimal microencapsulation.

SMILES	wt % Release ([1]; 0.01M Acid Buffer, pH 2.00) [wt %]	wt % Release ([1]; 0.05M Phosphate Buffer, pH 7.00) [wt %]	Difference ([2]; Pan, opening size <106 micron) [g]	Final (wt % of total output) ([2]; Pan, opening size <106 micron)	Final (wt % of total output) ([2]; US mesh sieve #20, opening size 850 micron)	Final (wt % of total output) ([2]; US mesh sieve #40, opening size 425 micron)	Final (wt % of total output) ([2]; US mesh sieve #60, opening size 250 micron)	Final (wt % of total output) ([2]; US mesh sieve #80, opening size 180 micron)	Final (wt % of total output) ([2]; US mesh sieve #100, opening size 150 micron)	Final (wt % of total output) ([2]; US mesh sieve #140, opening size 106 micron)	Difference ([2]; retained on US mesh sieve #20, opening size 850 micron) [g]	Difference ([2]; retained on US mesh sieve #40, opening size 425 micron) [g]	Difference ([2]; retained on US mesh sieve #60, opening size 250 micron) [g]	Difference ([2]; retained on US mesh sieve #80, opening size 180 micron) [g]	Difference ([2]; retained on US mesh sieve #100, opening size 150 micron) [g]	Difference ([2]; retained on US mesh sieve #140, opening size 106 micron) [g]
CSCC[C@H](N)C(=O)O [Met Reference Standard (99.9% purity)]	99	99	–	–	–	–	–	–	–	–	–	–	–	–	–	–
Cl.N[C@@H](Cc1cnc[nH]1)C(=O)O.O	–	–	7.41	7.4 wt % of total output	2.6 wt % of total output	34.8 wt % of total output	33.9 wt % of total output	11.9 wt % of total output	5.3 wt % of total output	4.1 wt % of total output	2.60	34.87	33.99	11.88	5.35	4.09
